Source: patent publication US20020193425A1, “Cancer chemopreventative compounds and compositions and methods of treating cancers” (priority 2001, published 2002)
≈ marks a conversion by molar mass, not a printed value. Where two headings read alike, the source gives them in different places.

How the values were obtained:
[1] = Cytotoxicity, viability by Trypan blue exclusion; conditions: human, RS4;11 cells, Cytotoxicity (IC50, ng/ml), four days
Method: (§3) All cell lines were maintained in suspension culture using RPMI 1640 medium supplemented with 10% heat-inactivated fetal bovine serum, 100 units of penicillin/ml and 100 μg of streptomycin/ml at 37° C. in a humidified atmosphere of 5% CO2 in air.
(§4) ^aViability was determined by Trypan blue exclusion in duplicate samples. […] Results are expressed as median inhibitory cell concentrations of two independent experiments (±standard deviations).

RS4;11 = experiment: Cytotoxicity, viability by Trypan blue exclusion; conditions: four days
Method: as §3, §4

HL-60 cells = experiment: In vivo hollow fiber test
Method: As a preliminary test of in vivo efficacy, a hollow fiber study was performed. The in vivo hollow fiber test was performed using literature procedures with some modifications (see M. G. Hollingshead et al., Life Sic., 57, pages 131-141 (1995)). HL-60 cells were cultured in RPMI 1640 medium and collected by centrifugation and resuspended in conditioned medium at a concentration of 2.5×10^6 cells/ml. Fibers filled with cells were incubated in 6-well plates overnight at 37° C. in a 5% CO2 atmosphere. Female athymic NCr nu/nu mice at 5-6 weeks of age were obtained from Frederick Cancer Research Facility. Each mouse hosted up to 6 fibers, which were cultured in two physiologic compartments. For intraperitoneal implants, a small incision was made through the skin and musculature of the dorsal abdominal wall, the fiber samples were inserted into the peritoneal cavity in a craniocaudal direction, and the incision was closed with skin staples. For subcutaneous implants, a small skin incision was made at the nape of the neck to allow insertion of an 11-gauge tumor implant trocar. The trocar, containing the hollow fiber samples, was inserted caudally through the subcutaneous tissues and fibers were deposited during withdrawal of the trocar. The incision was closed with a skin staple.
In preliminary studies, cell growth was assessed with fibers containing various cell densities. […] For treatment protocols, brusatol was dissolved in PBS. Mice were randomized into 7 groups: PBS vehicle control group (6 mice per group); 0.25, 0.5, 1.25, 2.5, 5, 12.5 mg/kg of brusatol (3 mice per group). Test compound brusatol was administered once daily by intraperitoneal injection from day 3-6 after implantation. Body weights were measured daily.
On day 7, mice were sacrificed and fibers were retrieved. […] Aliquots (150 μl) of extracted MTT formazan were transferred to Individual wells of 96-well plates and assessed for optical density at a wavelength of 540 nm. The effect of the treatment regimen was determined by the net growth percentage of the cells relative to change in […].

[2] = Cytotoxicity, viability by Trypan blue exclusion; assay type: cell-based; conditions: human, NB4; four days; read-out: Cytotoxicity (IC50, ng/ml)
Excerpt: (§1) All cells were routinely tested for mycoplasma contamination.
(§2) Cellular viability was monitored by Trypan blue exclusion.

DHL-6 = experiment: Cytotoxicity, viability by Trypan blue exclusion; assay type: cell-based; conditions: for Cytotoxicity (IC50, ng/ml): DHL-6, four days
Excerpt: as §1, §2

NB4 = experiment: Cytotoxicity, viability by Trypan blue exclusion; assay type: cell-based
Excerpt: as §1, §2

Daudi = experiment: Cytotoxicity, viability by Trypan blue exclusion; assay type: cell-based; conditions: for Cytotoxicity (IC50, ng/ml): Daudi, four days
Excerpt: as §1, §2

[3] = Cytotoxicity, viability by Trypan blue exclusion; conditions: human, Reh cells, Cytotoxicity (IC50, ng/ml), four days
Method: as §3, §4

Reh = experiment: Cytotoxicity, viability by Trypan blue exclusion; conditions: four days
Method: as §3, §4

[4] = Cytotoxicity, viability by Trypan blue exclusion; conditions: human
Method: Human blood (20 ml) was collected in heparinized sterile tubes and white blood cells were separated using Ficoll reagent (8 ml/5 ml blood diluted in 15 ml Hank's buffered solution). After centrifugation at low speed (1500 rpm) for 30 min, the white coat was removed and washed 3-times with Hank's buffered solution. The cell pellet was resuspended in RPMI 1640 medium supplemented with 10% FBS. This preparation contained >90% lymphocytes and <5% monocytes, as determined by Wright-Giemsa staining.
as §4

[5] = human beings; single intravenous injection of 3 mg/m^2; cited from earlier work

Row | SMILES | IC50 at 4 days [1] [µg/mL] | Cytotoxicity (IC50, ng/ml) (RS4;11) [ng/mL] | inhibition at s.c. site (HL-60 cells; HL-60 hollow fibers, 5 mg/kg) [%] | inhibitory percentage at s.c. site (HL-60 cells; HL-60 hollow fibers, doses from 0.25 mg/kg, below 5 mg/kg) | lethality (HL-60 cells; mice, 12.5 mg/kg) | IC50 at 4 days [2] [ng/mL] | Cytotoxicity (IC50, ng/ml) (DHL-6; listed as Brusatol) [ng/mL] | Cytotoxicity (IC50, ng/ml) (DHL-6; listed as brusatol) | cytotoxicity (DHL-6; human, 48 h, 25 ng/ml) [%] | Cytotoxicity (IC50, ng/ml) (NB4; NB4, four days) [ng/mL] | cytotoxicity (NB4; human, 48 h, 25 ng/ml) [%] | Cytotoxicity (IC50, ng/ml) (Daudi; listed as Brusatol) [ng/mL] | Cytotoxicity (IC50, ng/ml) (Daudi; listed as brusatol) | cytotoxicity (Daudi; human, 48 h, 25 ng/ml) [%] | IC50 at 4 days [3] [µg/mL] | Cytotoxicity (IC50, ng/ml) (Reh) [ng/mL] | viability at 3 days, 100 ng/ml ([4]; peripheral blood lymphocytes stimulated with concanavalin A) [%] | IC50 at 3 days ([4]; peripheral human lymphocytes) [µg/mL] | blood level [5] [ng/mL]
1 | COC(=O)[C@@]12OC[C@]34[C@H]([C@@H](O)[C@@H]1O)[C@@]1(C)CC(=O)C(O)=C(C)[C@@H]1C[C@H]3OC(=O)[C@H](OC(=O)C=C(C)C)[C@@H]24 [compound 1, brusatol] | < 0.025 | 25 ± 2 | 80.8 | around 25% | lethal | < 25 | 5 ± 0.5 | less than 25 ng/ml | 100 | 15 ± 0.2 | 100 | 5 ± 0.3 | less than 25 ng/ml | 100 | 0.05 to 0.1 (≈ 0.0961 to 0.192 µM) | 100 ± 5.4 | ~90 | > 0.1 | –
2 | COC(=O)[C@@]12OC[C@]34[C@H]([C@@H](O)[C@@H]1O)[C@@]1(C)CC(=O)C(O)=C(C)[C@@H]1C[C@H]3OC(=O)[C@H](OC(=O)/C=C(\C)C(C)C)[C@@H]24 [compound 2, bruceantin] | – | – | – | – | – | – | – | – | – | – | – | – | – | – | – | – | – | – | 22
